What all share (assay): NCI-60 cell line screen, 48 h
Experiment [1] concerns OVCAR-3.
In experiment [2] the test system is UO-31.
The subject of experiment [3] is HCT-15.
Experiment [4] has as its system NCI-H23.
Experiment [5] concerns NCI-H226.
Experiment [6] deals with OVCAR-4.
Experiment [7] has as its system UACC-257.
Experiment [8] relates to A498.
Experiment [9] concerns U-251.
Experiment [10] concerns ACHN.
The test system of experiment [11] is A549.
For experiment [12], the system named is HCC 2998.
Experiment [13] concerns Malme-3M.
The subject of experiment [14] is NCI-H460.
The subject of experiment [15] is HCT-116.
In experiment [16] the test system is OVCAR-5.
The test system of experiment [17] is KM12.
Experiment [18] deals with CAKI-1.

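Each compound was tested at five concentrations against cells in 96-well plates for 48 hours. GI50: concentration for 50% inhibition of growth.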 Active and inactive are the calls of the source. Cut-off read from the data, not from the text of the source: active = GI50 up to about 1.1 µM and inactive = higher.

Regarding `CCOC(=O)C(C)(C)Oc1ccc2c(=O)cc(-c3ccc(Cl)cc3)oc2c1`, the GI50 in experiment [1] was > 100 µM (inactive); in [2], > 100 µM (inactive); in experiment [3] it was greater than 100 µM; in experiment [4] it was > 100 µM (inactive); in [5] it was > 100 µM (inactive); in experiment [6] it was > 100 µM (inactive). For the same compound, the GI50 in experiment [7], in experiment [8], in experiment [9], in experiment [10], in experiment [11] and in experiment [12] was > 100 µM (inactive) throughout. Moreover, the GI50 in experiment [13], in experiment [14] and in [15] was > 100 µM (inactive) throughout.
As to `COc1ccc(OC(C(=O)O)c2ccccc2)c2c1CCCC2=O` (centres undefined), the GI50 is > 100 µM (inactive) in [1]; > 100 µM (inactive) in experiment [2]; greater than 100 µM in [3]; > 100 µM (inactive) in [16]; > 100 µM (inactive) in [4]; > 100 µM (inactive) in experiment [6]. Also, the GI50 in [7], in experiment [8], in experiment [9], in [10], in [11] and in experiment [17] was > 100 µM (inactive) throughout. Also, the GI50 in experiment [12], in [13], in experiment [14], in [18] and in experiment [15] was > 100 µM (inactive) each time.
As for `NCC(=O)OCN1C(=O)C2C3C=CC(C2C1=O)C1C2C(=O)N(COC(=O)CN)C(=O)C2C31` (centres undefined), the GI50 in experiment [1] was 35 µM (inactive); in experiment [2], 56.8 µM (inactive); in [3], 16.9 µM; in experiment [4], 29.2 µM (inactive); in experiment [5], 39.5 µM (inactive); in experiment [6], 26.1 µM (inactive). Moreover, the GI50 in experiment [7] is 31.8 µM (inactive); in [8], 87.5 µM (inactive); in [9] it was 18.7 µM (inactive); in experiment [10], 24.5 µM (inactive); in experiment [11], 25.5 µM (inactive); in experiment [17] it was 20.8 µM (inactive). The GI50 in [14] is 17.3 µM (inactive); in experiment [18] it was 32.9 µM (inactive); in experiment [15] it was 14.6 µM (inactive).
As for `c1ccc(C2=NOC3COc4ccccc4OCC23)cc1` (centres undefined), the GI50 was > 100 µM (inactive) in experiment [1]; 77.1 µM (inactive) in experiment [2]; greater than 100 µM in [3]; > 100 µM (inactive) in experiment [4]; > 100 µM (inactive) in experiment [6]; > 100 µM (inactive) in [7]. In addition, the GI50 was > 100 µM (inactive) in [8]; > 100 µM (inactive) in [9]; > 100 µM (inactive) in experiment [10]; > 100 µM (inactive) in experiment [11]; 8.17 µM (inactive) in experiment [17]; > 100 µM (inactive) in experiment [12]. For the same compound, the GI50 was > 100 µM (inactive) in experiment [13], > 100 µM (inactive) in [14], 97.5 µM (inactive) in experiment [18] and > 100 µM (inactive) in [15].
Regarding `C=CCNC(=O)N(CCCCC(NC(C)=O)C(=O)NCc1ccccc1)Cc1ccccc1` (centres undefined), the GI50 in experiment [1] is > 100 µM (inactive); in [2], > 100 µM (inactive); in experiment [3], greater than 100 µM; in experiment [16], > 100 µM (inactive); in experiment [4] it was > 100 µM (inactive); in [5], > 100 µM (inactive). In addition, the GI50 in [6], in [7], in [8], in experiment [9], in experiment [10] and in experiment [11] was > 100 µM (inactive) each time. In addition, the GI50 in [17], in experiment [13], in experiment [14] and in [18] was > 100 µM (inactive) throughout.
In the case of `CCOC(=O)N1C/C(=C\c2ccc(N(C)C)cc2)C(=O)/C(=C/c2ccc(N(C)C)cc2)C1`, the GI50 in [1] was > 100 µM (inactive); in experiment [2], > 100 µM (inactive); in experiment [3], greater than 100 µM; in [16], > 100 µM (inactive); in [4] it was > 100 µM (inactive); in [6] it was > 100 µM (inactive). The GI50 in [7], in experiment [8], in experiment [9], in [10], in experiment [11] and in experiment [17] was > 100 µM (inactive) each time. Further, the GI50 in [12], in [13], in experiment [14], in experiment [18] and in experiment [15] was > 100 µM (inactive) in each case.
`CC1=C(c2cc(C(=O)Nc3cccc(C(F)(F)F)c3)ncn2)Sc2ccccc2N1`: the GI50 in experiment [1] is > 100 µM (inactive); in experiment [2], > 100 µM (inactive); in experiment [3], greater than 100 µM; in [4] it was > 100 µM (inactive); in experiment [5], > 100 µM (inactive); in [6], > 100 µM (inactive). Besides, the GI50 in experiment [7], in experiment [8], in experiment [9], in experiment [10], in [11] and in experiment [17] was > 100 µM (inactive) throughout. Moreover, the GI50 in experiment [13], in experiment [14], in [18] and in experiment [15] was > 100 µM (inactive) throughout.
For `CC(=O)[O-].Cc1ncc(CO)c(/C=N/NC(N)=S)c1[O-].[Zn+2]`, the GI50 was > 100 µM (inactive) in experiment [1]; > 100 µM (inactive) in [2]; greater than 100 µM in experiment [3]; > 100 µM (inactive) in [16]; > 100 µM (inactive) in experiment [4]; > 100 µM (inactive) in experiment [5]. In addition, the GI50 in experiment [6], in experiment [7], in [8], in experiment [9], in [10] and in [11] was > 100 µM (inactive) in each case. The GI50 in experiment [12], in experiment [13], in experiment [14] and in experiment [15] was > 100 µM (inactive) in each case.
`CCC1(O)C(=O)OCc2c1cc1n(c2=O)Cc2cc3cc(OC)c(OC)cc3nc2-1` (centres undefined): the GI50 in [1] is 83.4 µM (inactive); in [2] it was 32 µM (inactive); in experiment [16] it was > 100 µM (inactive); in experiment [4] it was 15 µM (inactive); in experiment [5], 14.8 µM (inactive); in experiment [6], > 100 µM (inactive). Besides, the GI50 was > 100 µM (inactive) in experiment [7]; 28.1 µM (inactive) in [8]; 6.52 µM (inactive) in [9]; 4.5 µM (inactive) in experiment [10]; 33.1 µM (inactive) in experiment [11]; > 100 µM (inactive) in experiment [17]. Further, the GI50 is 36.7 µM (inactive) in experiment [12], > 100 µM (inactive) in experiment [13], 3.49 µM (inactive) in experiment [14] and 22.3 µM (inactive) in experiment [15].
